In PubChem BioAssay (NCI) one finds TGI data, which are given here for 20 compounds.

Among the test systems are BT-549 breast; HL-60(TB) leukemia; MDA-MB-435; PC-3 prostate; RPMI-8226 leukemia; SK-MEL-28 melanoma; SN12C renal; SNB-75 CNS; SW-620 colon; UO-31 renal.
What all share (test): NCI tumour cell line growth inhibition, 48 h

Each structure is given as a SMILES string.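 These data come from cells grown in 96-well plates and exposed to compound for 48 hours at five concentrations. TGI denotes the concentration required for complete inhibition of growth.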

For `N#Cc1ncn(-c2ccccc2)c1N`, the TGI in the test on BT-549 breast, in the test with HL-60(TB) leukemia, with MDA-MB-435, in the test with PC-3 prostate, with RPMI-8226 leukemia and in the test on SK-MEL-28 melanoma was above 100 µM in each case. Also, the TGI in the test with SN12C renal, in the test with SNB-75 CNS, in the test with SW-620 colon and in the test on UO-31 renal was above 100 µM throughout.
Take `CCC1(OC(=O)CN2CCN(CCO)CC2)C(=O)OCc2c1cc1n(c2=O)Cc2cc3ccccc3nc2-1` (stereo unspecified): the TGI in the test on BT-549 breast was 20.4 µM; in the test on HL-60(TB) leukemia, 3.24 µM; in the test on MDA-MB-435 it was 4.38 µM; with PC-3 prostate it was above 100 µM; in the test on RPMI-8226 leukemia it was 5.28 µM; with SK-MEL-28 melanoma, 39.2 µM. The TGI came out at 29.8 µM in the test with SN12C renal, 1.92 µM in the test with SNB-75 CNS, 10.3 µM with SW-620 colon and 0.851 µM in the test with UO-31 renal.
`CC(=O)OCC1OC(Nc2ccc3nc(C)n(-c4cccc(C)c4)c(=O)c3c2)C(OC(C)=O)C(OC(C)=O)C1OC(C)=O` (stereo unspecified): the TGI in the test with BT-549 breast, in the test on HL-60(TB) leukemia, in the test with MDA-MB-435, in the test on PC-3 prostate, in the test with RPMI-8226 leukemia and in the test with SK-MEL-28 melanoma was above 62.5 µM each time. The TGI in the test with SN12C renal, with SNB-75 CNS, in the test on SW-620 colon and with UO-31 renal was above 62.5 µM each time.
Regarding `OC1c2ccccc2[C@@H]2[C@H]1[C@@H](c1ccccc1)C1(Cc3ccccc3C1O)[C@H]2c1ccccc1` (stereo partly specified), the TGI is 28.6 µM in the test on BT-549 breast; 4.47 µM with HL-60(TB) leukemia; 7.73 µM in the test on MDA-MB-435; 8.87 µM in the test with PC-3 prostate; 9.89 µM in the test on RPMI-8226 leukemia; 22.1 µM with SK-MEL-28 melanoma. In addition, the TGI came out at 3.29 µM in the test with SN12C renal, 21.5 µM in the test on SNB-75 CNS, 17.4 µM in the test on SW-620 colon and 20.3 µM in the test with UO-31 renal.
Consider `O=C(NCCN1C(=O)CN=C(c2ccc(Cl)cc2)c2cc(Cl)ccc21)OCc1ccccc1`, for which the TGI was 32.4 µM in the test with BT-549 breast; 38.1 µM in the test on HL-60(TB) leukemia; 32.9 µM in the test on MDA-MB-435; 28.3 µM in the test with PC-3 prostate; 53.9 µM in the test on RPMI-8226 leukemia; above 100 µM in the test on SK-MEL-28 melanoma. Besides, the TGI with SN12C renal was 28.7 µM; in the test on SNB-75 CNS, 42.2 µM; in the test on SW-620 colon, above 100 µM; in the test with UO-31 renal, 24.7 µM.
As to `CCOC(=O)N1CCN(Cc2cc(=O)n3cc(C)ccc3n2)CC1`, the TGI with BT-549 breast, in the test on HL-60(TB) leukemia, in the test on MDA-MB-435, in the test on PC-3 prostate, in the test on RPMI-8226 leukemia and with SK-MEL-28 melanoma was above 100 µM each time. The TGI in the test with SN12C renal, in the test with SNB-75 CNS, in the test with SW-620 colon and in the test on UO-31 renal was above 100 µM throughout.
With `Cc1cc2nc(N3C(=O)/C(=C/c4cccc([N+](=O)[O-])c4)N=C3c3ccccc3)sc2cc1C`, the TGI in the test on BT-549 breast was above 100 µM; with HL-60(TB) leukemia, 54.5 µM; in the test on MDA-MB-435, 36.5 µM; in the test on PC-3 prostate it was 56.5 µM; with RPMI-8226 leukemia it was 48.1 µM; with SK-MEL-28 melanoma, above 100 µM. In addition, the TGI with SN12C renal is above 100 µM; in the test on SNB-75 CNS, 33.2 µM; in the test on SW-620 colon, above 100 µM; in the test with UO-31 renal, above 100 µM.
Take `Cc1c2c(c(C)n1-c1ccccc1)C(=O)N(CCSC(=N)N)C2=O`: the TGI in the test with BT-549 breast, with HL-60(TB) leukemia, in the test on MDA-MB-435, in the test with PC-3 prostate, in the test with RPMI-8226 leukemia and in the test with SK-MEL-28 melanoma was above 100 µM in each case. Also, the TGI in the test on SN12C renal, with SNB-75 CNS, in the test on SW-620 colon and in the test on UO-31 renal was above 100 µM in each case.
For the compound `N#Cc1cccc(C2ON=C(c3ccc([N+](=O)[O-])cc3)N2C23CC4CC(CC(C4)C2)C3)c1` (stereo unspecified), the TGI in the test with BT-549 breast, in the test on HL-60(TB) leukemia, with MDA-MB-435, with PC-3 prostate, with RPMI-8226 leukemia and in the test with SK-MEL-28 melanoma was above 100 µM in each case. Further, the TGI in the test on SN12C renal, in the test with SNB-75 CNS, with SW-620 colon and in the test on UO-31 renal was above 100 µM throughout.
In the case of `Cc1cn(CC2=NCCN2)c(=O)[nH]c1=O`, the TGI in the test with BT-549 breast, with HL-60(TB) leukemia, with MDA-MB-435, with PC-3 prostate, with RPMI-8226 leukemia and in the test on SK-MEL-28 melanoma was above 100 µM each time. Further, the TGI in the test with SN12C renal, in the test with SNB-75 CNS, in the test with SW-620 colon and with UO-31 renal was above 100 µM each time.
With `N=C(/C=C/c1ccc(-c2cn3cc(/C=C/C(=N)N4CCCC4)ccc3n2)cc1)N1CCCC1`, the TGI with BT-549 breast, with HL-60(TB) leukemia, in the test with MDA-MB-435, in the test on PC-3 prostate, with RPMI-8226 leukemia and with SK-MEL-28 melanoma was above 100 µM in each case. The TGI in the test with SN12C renal, in the test with SNB-75 CNS, with SW-620 colon and with UO-31 renal was above 100 µM throughout.
For the compound `CSC(SC)=C1C(=O)NN=C1C`, the TGI with BT-549 breast, with HL-60(TB) leukemia, in the test with MDA-MB-435, with PC-3 prostate, with RPMI-8226 leukemia and with SK-MEL-28 melanoma was above 100 µM each time. In addition, the TGI with SN12C renal, in the test with SW-620 colon and in the test on UO-31 renal was above 100 µM each time.
As for `Clc1ccccc1/C=C/c1nsc(/C=C/c2ccccc2Cl)n1`, the TGI in the test on BT-549 breast was above 100 µM; in the test on HL-60(TB) leukemia, 52.5 µM; with MDA-MB-435, above 100 µM; in the test on PC-3 prostate it was above 100 µM; in the test with RPMI-8226 leukemia, 84.5 µM; in the test with SK-MEL-28 melanoma, above 100 µM. For the same compound, the TGI in the test on SN12C renal was 51.5 µM; in the test on SNB-75 CNS, above 100 µM; with UO-31 renal it was above 100 µM.
As to `CC[C@@H](CCCC[C@@H]1CC[C@H]2CC(=O)C[C@@H]12)OC`, the TGI with BT-549 breast, in the test with HL-60(TB) leukemia, with MDA-MB-435, in the test with PC-3 prostate, in the test with RPMI-8226 leukemia and with SK-MEL-28 melanoma was above 100 µM throughout. The TGI with SN12C renal, in the test on SNB-75 CNS and in the test with SW-620 colon was above 100 µM throughout.
Turning to `CC(CC(=O)CO[C@H]1[C@H](O)[C@@H](O)[C@@H](O)[C@@H]2NC(=O)c3c(cc4c(c3O)OCO4)[C@H]21)OC1OC(CO)C(O)C(O)C1O` (stereo partly specified), the TGI was 3.76 µM in the test with BT-549 breast; 2.45 µM with HL-60(TB) leukemia; 4.5 µM in the test with MDA-MB-435; 1.48 µM with PC-3 prostate; 2.07 µM with RPMI-8226 leukemia; 14.3 µM in the test on SK-MEL-28 melanoma. Also, the values for the TGI in the test on SN12C renal, in the test on SNB-75 CNS and with UO-31 renal were 2.14 µM, 0.884 µM and 8.11 µM, respectively.
Consider `CC(=O)OC1/C(=C/c2ccc([N+](=O)[O-])cc2)C[C@H]2[C@@H]3CC=C4C[C@@H](OC(C)=O)CC[C@]4(C)[C@H]3CC[C@]12C` (stereo partly specified), for which the TGI in the test with BT-549 breast is above 100 µM; in the test with HL-60(TB) leukemia, 13.3 µM; in the test with MDA-MB-435, above 100 µM; in the test on PC-3 prostate, above 100 µM; in the test with RPMI-8226 leukemia, above 100 µM; in the test on SK-MEL-28 melanoma it was above 100 µM. The TGI in the test on SN12C renal, with SW-620 colon and with UO-31 renal was above 100 µM throughout.
`CC(=O)Oc1ccc(N2C(=O)C3c4[nH]c5ccccc5c4C4CCC(C(C)(C)C)CC4C3C2=O)cc1` (stereo unspecified): the TGI with BT-549 breast is 14.9 µM; with HL-60(TB) leukemia it was 5.47 µM; in the test with MDA-MB-435, 22.6 µM; in the test with PC-3 prostate, 10.4 µM; in the test on RPMI-8226 leukemia it was above 100 µM; in the test on SK-MEL-28 melanoma, 14.9 µM. The TGI with SN12C renal amounted to 4.17 µM; in the test on SW-620 colon, 5.16 µM; in the test on UO-31 renal, 17.7 µM.
With `CSc1c(C(=O)Nc2ccc(C)cc2)c(N)nn1-c1ccccc1`, the TGI in the test with BT-549 breast, in the test with HL-60(TB) leukemia, in the test with MDA-MB-435, with PC-3 prostate, with RPMI-8226 leukemia and in the test on SK-MEL-28 melanoma was above 100 µM throughout. The TGI in the test with SN12C renal, in the test with SW-620 colon and in the test with UO-31 renal was above 100 µM throughout.
With `COc1ncnc2c1cnn2Cc1cn(COCC(O)CO)nn1` (stereo unspecified), the TGI in the test on BT-549 breast, in the test with HL-60(TB) leukemia, in the test with MDA-MB-435, with PC-3 prostate, in the test on RPMI-8226 leukemia and in the test with SK-MEL-28 melanoma was above 100 µM in each case. Besides, the TGI with SN12C renal, with SW-620 colon and with UO-31 renal was above 100 µM each time.
Regarding `Cc1ccc(-c2sc(-c3ccc(C)cc3)c3c2C2CCC3C2)cc1`, the TGI in the test on BT-549 breast, in the test on HL-60(TB) leukemia, with MDA-MB-435, in the test with PC-3 prostate, in the test on RPMI-8226 leukemia and in the test on SK-MEL-28 melanoma was above 50 µM in each case. Moreover, the TGI in the test with SN12C renal, in the test with SW-620 colon and with UO-31 renal was above 50 µM throughout.
